Source: patent US20040192720A1, “Novel heteroaryl alkylamide derivatives useful as bradykinin receptor modulators” (priority 2003, published 2004)
Values belong to the compound of their own block, whether it stands above or below them.

Target: T1, human B2 bradykinin receptors (CHO-hB2 cell membranes) (Homo sapiens, UniProt P30411)
T1 construct: purchased Receptor Biology, Inc. (Baltimore, Md.); host or cells: CHO-hB2 cells (membranes)
T1 sequence (P30411 1-391): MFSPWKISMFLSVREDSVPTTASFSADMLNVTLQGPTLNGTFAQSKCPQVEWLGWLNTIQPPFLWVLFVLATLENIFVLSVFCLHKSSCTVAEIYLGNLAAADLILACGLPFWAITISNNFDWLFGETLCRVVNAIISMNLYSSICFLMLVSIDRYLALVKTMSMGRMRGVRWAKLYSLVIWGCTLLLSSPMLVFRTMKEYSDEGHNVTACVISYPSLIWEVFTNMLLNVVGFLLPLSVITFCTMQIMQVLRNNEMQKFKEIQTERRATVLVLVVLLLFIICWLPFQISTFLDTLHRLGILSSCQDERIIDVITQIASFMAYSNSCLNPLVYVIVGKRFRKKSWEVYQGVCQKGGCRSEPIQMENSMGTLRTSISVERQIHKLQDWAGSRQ
Assay: [35S]GTPγS Binding Assay in CHO-hB2 Cell Membranes
Type: biochemical
Conditions: bradykinin-stimulated [35S]GTPγS binding; for Functional Activity (% Basal): number in parentheses, concentration not given
Description: [^35S]GTPγS Binding Assay in CHO-hB2Cell Membranes
CHO-hB2 cell membranes were purchased from Receptor Biology, Inc. (Baltimore, Md.). 10 mg/mL of membrane protein was suspended in 10 mM TRIS-HC pH 7.2, 2 mM EDTA, 10% sucrose.
Membranes were added into 15 mL ice cold binding assay buffer. The assay buffer contained 50 mM HEPES, pH 7.6, 5 mM MgCl2, 100 mM NaCl, 1 mM DTT and 1 mM EDTA. The membrane suspension was homogenized twice with a Polytron and centrifuged at 3000 rpm for 10 min. The supernatant was then centrifuged at 18,000 rpm for 20 min. The pellet was saved in a tube and resuspended.
The pellet membranes (40 μg/mL) were preincubated with SPA (scintillation proximity assay) beads (20 mg/mL) at 25 C. ° for 45 min in the assay buffer. The SPA beads (5 mg/mL) coupled with membranes (10 μg/mL) were then incubated with 0.5 nM [^35S]GTPγS in the same HEPES buffer containing 50 μM GDP in total volume of 200 μL. Bradykinin was used to stimulate [^35S]GTPγS binding. Varying concentrations of drugs were incubated with bradykinin to inhibit bradykinin-stimulated [^35S]GTPγS binding. The basal binding was tested in the absence of bradykinin and no specific binding was tested in the present 10 μM unlabeled GTPγS. The radioactivity was quantified on a Packard Top Count, and calculated.
% of Basal=(stimulated binding−non specific binding)/(basal binding−non specific binding)×100.

Structure (SMILES): Cc1ccc2cccc(OCc3c(Cl)ccc(N(C)C(=O)Cc4cc(C(=O)c5ccc(C#N)cc5)n(C)c4)c3Cl)c2n1 [Compound 4, 2-[5-(4-Cyano-benzoyl)-1-methyl-1H-pyrrol-3-yl]-N-[2,4-dichloro-3-(2-methyl-quinolin-8-yloxymethyl)-phenyl]-N-methyl-acetamide]
Functional Activity (word result): Antagonist

Structure (SMILES): COc1ccc(C(=O)c2ccc(CC(=O)N(C)c3ccc(Cl)c(COc4cccc5ccc(C)nc45)c3Cl)[nH]2)cc1 [Compound 5]
Functional Activity (word result): Antagonist

Structure (SMILES): CCn1c(CC(=O)N(C)c2ccc(Cl)c(COc3cccc4ccc(C)nc34)c2Cl)ccc1C(=O)c1ccc(C#N)cc1 [Compound 8]
Functional Activity (word result): Antagonist | Functional Activity (% Basal): 40 % Basal

Structure (SMILES): CCCn1c(CC(=O)N(C)c2ccc(Cl)c(COc3cccc4ccc(C)nc34)c2Cl)ccc1C(=O)c1ccc(C#N)cc1 [Compound 9]
Functional Activity (word result): No effect | Functional Activity (% Basal): 1 % Basal

Structure (SMILES): CCCCn1c(CC(=O)N(C)c2ccc(Cl)c(COc3cccc4ccc(C)nc34)c2Cl)ccc1C(=O)c1ccc(C#N)cc1 [Compound 10]
Functional Activity (word result): No effect | Functional Activity (% Basal): 1 % Basal

Structure (SMILES): Cc1ccc2cccc(OCc3c(Cl)ccc(N(C)C(=O)Cc4ccc(C(=O)c5ccc(C#N)cc5)n4CC4CC4)c3Cl)c2n1 [Compound 11, 2-[5-(4-Cyano-benzoyl)-1-cyclopropylmethyl-1H-pyrrol-2-yl]-N-[2,4-dichloro-3-(2-methyl-quinolin-8-yloxymethyl)-phenyl]-N-methyl-acetamide]
Functional Activity (word result): No effect | Functional Activity (% Basal): 1 % Basal

Structure (SMILES): Cc1ccc2cccc(OCc3c(Cl)ccc(N(C)C(=O)Cc4ccc(C(=O)c5ccc(C#N)cc5)n4CC(C)C)c3Cl)c2n1 [Compound 12]
Functional Activity (word result): No effect | Functional Activity (% Basal): 1 % Basal

Structure (SMILES): Cc1ccc2cccc(OCc3c(Cl)ccc(N(C)C(=O)Cc4ccc(C(=O)c5ccc(C#N)cc5)n4CCC(C)C)c3Cl)c2n1 [Compound 13]
Functional Activity (word result): No effect | Functional Activity (% Basal): 1 % Basal

Structure (SMILES): CCN(C(=O)Cc1ccc(C(=O)c2ccc(C#N)cc2)n1C)c1ccc(C)c(COc2cccc3ccc(C)nc23)c1C [Compound 16]
Functional Activity (word result): No effect | Functional Activity (% Basal): 1 % Basal

Structure (SMILES): Cc1ccc2cccc(OCc3c(Cl)ccc(N(C)C(=O)Cc4ccc(C(=O)CN5CCC(c6ccccc6)CC5)n4C)c3Cl)c2n1 [Compound 58, N-[2,4-Dichloro-3-(2-methyl-quinolin-8-yloxymethyl)-phenyl]-N-methyl-2-{1-methyl-5-[2-(4-phenyl-piperidin-1-yl)-acetyl]-1H-pyrrol-2-yl}-acetamide]
Functional Activity (word result): No effect | Functional Activity (% Basal): 1 % Basal

Structure (SMILES): Cc1ccc2cccc(OCc3c(Cl)ccc(N(C)C(=O)Cc4ccc(C(=O)CN5CCC(Cc6ccccc6)CC5)n4C)c3Cl)c2n1 [Compound 59]
Functional Activity (word result): No effect | Functional Activity (% Basal): 1 % Basal

Structure (SMILES): Cc1ccc2cccc(OCc3c(Cl)ccc(N(C)C(=O)Cc4ccc(C(=O)c5cccs5)n4C)c3Cl)c2n1 [Compound 61]
Functional Activity (word result): Weak antagonist

Structure (SMILES): Cc1ccc2cccc(OCc3c(Cl)ccc(N(C)C(=O)Cc4ccc(C(=O)c5ccc(C(=O)N(C)C)cc5)n4C)c3Cl)c2n1 [Compound 62, 4-[5-({[2,4-Dichloro-3-(2-methyl-quinolin-8-yloxymethyl)-phenyl]-methyl-carbamoyl}-methyl)-1-methyl-1H-pyrrole-2-carbonyl]-N,N-dimethyl-benzamide]
Functional Activity (word result): Antagonist

Structure (SMILES): COC(=O)c1ccc(C(=O)c2ccc(CC(=O)N(C)c3ccc(Cl)c(COc4cccc5ccc(C)nc45)c3Cl)n2C)cc1 [Compound 64]
Functional Activity (word result): Antagonist

Structure (SMILES): Cc1ccc2cccc(OCc3c(Cl)ccc(N(C)C(=O)Cc4ccc(C(=O)c5ccccc5[N+](=O)[O-])n4C)c3Cl)c2n1 [Compound 66]
Functional Activity (word result): Antagonist

Structure (SMILES): CC(=O)Nc1cccc(C(=O)c2ccc(CC(=O)N(C)c3ccc(Cl)c(COc4cccc5ccc(C)nc45)c3Cl)n2C)c1 [Compound 72]
Functional Activity (word result): Antagonist

Structure (SMILES): CC(=O)Nc1ccc(C(=O)c2ccc(CC(=O)N(C)c3ccc(Cl)c(COc4cccc5ccc(C)nc45)c3Cl)n2C)cc1 [Compound 74, 2-[5-(4-Acetylamino-benzoyl)-1-methyl-1H-pyrrol-2-yl]-N-[2,4-dichloro-3-(2-methyl-quinolin-8-yloxymethyl)-phenyl]-N-methyl-acetamide]
Functional Activity (word result): Antagonist

Structure (SMILES): Cc1ccc2cccc(OCc3c(C)ccc(N(C)C(=O)Cc4ccc(C(=O)c5ccc(C#N)cc5)n4C)c3C)c2n1 [Compound 79, 2-[5-(4-Cyano-benzoyl)-1-methyl-1H-pyrrol-2-yl]-N-[2,4-dimethyl-3-(2-methyl-quinolin-8-yloxymethyl)-phenyl]-N-methyl-acetamide]
Functional Activity (word result): Antagonist | Functional Activity (% Basal): 100 % Basal

Next, values leading:

Functional Activity (word result): No effect | Functional Activity (% Basal): 1 % Basal
Structure (SMILES): CCN(C(=O)Cc1ccc(C(=O)c2ccc(Cl)nc2)n1C)c1ccc(Cl)c(COc2cccc3ccc(C)nc23)c1Cl [Compound 17]

Functional Activity (word result): No effect | Functional Activity (% Basal): 1 % Basal
Structure (SMILES): CCN(C(=O)Cc1ccc(C(=O)c2ccc(C#N)cc2)n1C)c1ccc(Cl)c(COc2cccc3ccc(C)nc23)c1Cl [Compound 18]

Functional Activity (word result): Antagonist
Structure (SMILES): Cc1ccc2cccc(OCc3c(Cl)ccc(N(C)C(=O)Cc4ccc(C(=O)c5ccc([N+](=O)[O-])cc5)n4C)c3Cl)c2n1 [Compound 63]

Functional Activity (word result): Antagonist
Structure (SMILES): Cc1ccc2cccc(OCc3c(Cl)ccc(N(C)C(=O)Cc4ccc(C(=O)c5ccc([N+](=O)[O-])c(C)c5)n4C)c3Cl)c2n1 [Compound 65, N-[2,4-Dichloro-3-(2-methyl-quinolin-8-yloxymethyl)-phenyl]-N-methyl-2-[1-methyl-5-(3-methyl-4-nitro-benzoyl)-1H-pyrrol-2-yl]-acetamide]

Functional Activity (word result): Antagonist
Structure (SMILES): Cc1ccc2cccc(OCc3c(Cl)ccc(N(C)C(=O)Cc4ccc(C(=O)c5ccc(Cl)nc5)n4C)c3Cl)c2n1 [Compound 67, 2-[5-(6-Chloro-pyridine-3-carbonyl)-1-methyl-1H-pyrrol-2-yl]-N-[2,4-dichloro-3-(2-methyl-quinolin-8-yloxymethyl)-phenyl]-N-methyl-acetamide]

Functional Activity (word result): Weak antagonist | Functional Activity (% Basal): 4 % Basal
Structure (SMILES): COc1ccc(C(=O)c2ccc(CC(=O)N(C)c3ccc(Cl)c(COc4cccc5ccc(C)nc45)c3Cl)n2C)cc1 [Compound 68]

Functional Activity (word result): Antagonist
Structure (SMILES): CSc1ccc(C(=O)c2ccc(CC(=O)N(C)c3ccc(Cl)c(COc4cccc5ccc(C)nc45)c3Cl)n2C)cc1 [Compound 69]

Functional Activity (word result): Antagonist
Structure (SMILES): Cc1ccc2cccc(OCc3c(Cl)ccc(N(C)C(=O)Cc4ccc(C(=O)c5ccc(C#N)nc5)n4C)c3Cl)c2n1 [Compound 71]

Functional Activity (word result): Antagonist
Structure (SMILES): Cc1ccc2cccc(OCc3c(Cl)ccc(N(C)C(=O)Cc4ccc(C(=O)c5ccc([S+](C)[O-])cc5)n4C)c3Cl)c2n1 (stereo not drawn) [Compound 73, N-[2,4-Dichloro-3-(2-methyl-quinolin-8-yloxymethyl)-phenyl]-2-[5-(4-methanesulfinyl-benzoyl)-1-methyl-1H-pyrrol-2-yl]-N-methyl-acetamide]

Functional Activity (word result): Antagonist
Structure (SMILES): Cc1ccc2cccc(OCc3c(Cl)ccc(N(C)C(=O)Cc4ccc(C(=O)c5ccc(S(C)(=O)=O)cc5)n4C)c3Cl)c2n1 [Compound 75, N-[2,4-Dichloro-3-(2-methyl-quinolin-8-yloxymethyl)-phenyl]-2-[5-(4-methanesulfonyl-benzoyl)-1-methyl-1H-pyrrol-2-yl]-N-methyl-acetamide]

Functional Activity (word result): Antagonist
Structure (SMILES): Cc1ccc2cccc(OCc3c(Cl)ccc(N(C)C(=O)Cc4ccc(C(=O)c5ccc(C#N)cc5)n4C)c3Cl)c2n1 [Compound 76]
